Measurements: PubChem BioAssay (NCI)
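In this assay, cells in 96-well plates receive the compound at five concentrations for 48 hours. Endpoints are linearly interpolated between the surrounding concentrations. GI50 = concentration required for 50% inhibition of growth. The concentration for full growth arrest is given as TGI.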 Where a SMILES comes first, the peptide text is derived from it. [ ]: non-standard residue; d: D form. Phe(F5) = N[CH](Cc1c(F)c(F)c(F)c(F)c1F)C(=O)O

Tests used:
Assay in all cases: inhibition of tumour cell growth, NCI panel, 48 h
A549 NSCLC = system: A549 NSCLC
NCI-H23 lung = system: NCI-H23 lung
HT29 colon = system: HT29 colon
CAKI-1 renal = system: CAKI-1 renal
OVCAR-4 ovarian = system: OVCAR-4 ovarian
NCI-H522 lung = system: NCI-H522 lung
A498 renal = system: A498 renal
MOLT-4 leukemia = system: MOLT-4 leukemia
786-0 renal = system: 786-0 renal
OVCAR-3 ovarian = system: OVCAR-3 ovarian

SMILES | GI50 (A549 NSCLC) | TGI (A549 NSCLC) | GI50 (NCI-H23 lung) | TGI (NCI-H23 lung) | GI50 (HT29 colon) | TGI (HT29 colon) | GI50 (CAKI-1 renal) | TGI (CAKI-1 renal) | GI50 (OVCAR-4 ovarian) | TGI (OVCAR-4 ovarian) | GI50 (NCI-H522 lung) | TGI (NCI-H522 lung) | GI50 (A498 renal) | TGI (A498 renal) | GI50 (MOLT-4 leukemia) | TGI (MOLT-4 leukemia) | GI50 (786-0 renal) | TGI (786-0 renal) | GI50 (OVCAR-3 ovarian) | TGI (OVCAR-3 ovarian)
CCN1C(=O)N(CC)C2C1NN=c1s/c(=C3\C(=O)N(C(C)C)c4ccccc43)c(=O)n12 (centres undefined) | 0.459 µM | > 100 µM | 0.421 µM | 30.5 µM | 0.35 µM | > 100 µM | 0.423 µM | > 54.4 µM | 1.6 µM | > 100 µM | 0.465 µM | > 100 µM | 0.239 µM | 0.91 µM | 0.379 µM | > 100 µM | 0.852 µM | 17.7 µM | 0.294 µM | 0.841 µM
c1ccc2[nH]c(-c3ccc(N4CCN(c5ccc(-c6nc7ccccc7[nH]6)cc5)CC4)cc3)nc2c1 | > 100 µM | > 100 µM | > 100 µM | > 100 µM | > 100 µM | > 100 µM | > 100 µM | > 100 µM | > 100 µM | > 100 µM | > 100 µM | > 100 µM | 54.8 µM | > 100 µM | 34.9 µM | > 100 µM | 36.9 µM | > 100 µM | > 100 µM | > 100 µM
CC1=C(C(=O)OCc2ccccc2)C(c2ccc3c(c2)OCO3)n2c(nc3ccccc32)N1 (centres undefined) | 0.69 µM | > 100 µM | > 56.4 µM | > 100 µM | 0.352 µM | > 100 µM | 0.275 µM | > 100 µM | 13.3 µM | > 100 µM | 0.164 µM | > 57.6 µM | 0.362 µM | > 100 µM | 0.753 µM | > 100 µM | 0.47 µM | > 100 µM | 0.235 µM | 0.998 µM
CCc1c(C)[nH]c(/C=C2\N=C(c3ccc[nH]3)C=C2OC)c1C | 0.498 µM | 10.5 µM | 1.1 µM | 11.3 µM | < 0.0376 µM | 2.29 µM | 0.292 µM | 3.53 µM | 0.893 µM | 12.5 µM | 0.576 µM | 2.34 µM | 6.87 µM | 21.5 µM | < 0.0394 µM | 4.18 µM | 0.177 µM | 0.675 µM | 0.143 µM | 3.18 µM
CCOP(=O)(OCC)C1CCCCOC1=O (centres undefined) | – | > 100 µM | – | > 100 µM | – | > 100 µM | – | > 100 µM | – | > 100 µM | – | – | – | > 100 µM | – | > 100 µM | – | > 100 µM | – | > 100 µM
COC(=O)C(CC(C)C)NC(=O)C(Cc1cnc[nH]1)NC(=O)CNC(=O)C(NC(=O)C(C)NC(=O)C(Cc1c[nH]c2ccccc12)NC(=O)C(CCC(=O)O)NC(=O)C(N)Cc1c(F)c(F)c(F)c(F)c1F)C(C)C (centres undefined) (H-[Phe(F5)]EWAVGHL-OMe; configuration not given here) | > 100 µM | > 100 µM | > 100 µM | > 100 µM | > 100 µM | > 100 µM | > 100 µM | > 100 µM | > 100 µM | > 100 µM | – | > 12.5 µM | > 100 µM | > 100 µM | > 100 µM | > 100 µM | > 100 µM | > 100 µM | > 100 µM | > 100 µM
N=C(N)c1nn(C2OC(CO)C(O)C2O)c2nc[nH]c(=O)c12 (centres undefined) | 0.659 µM | 13.4 µM | 0.727 µM | 3.63 µM | 2.11 µM | 11.7 µM | 0.264 µM | 1.2 µM | 0.647 µM | 7.84 µM | 0.239 µM | 0.69 µM | 1.46 µM | 4.74 µM | 0.491 µM | 4.12 µM | 0.642 µM | 4.61 µM | 0.836 µM | 2.9 µM
Nc1nc(/C=C\c2ccc([N+](=O)[O-])o2)nc(N2CCN(c3ccccc3)CC2)n1 | 19.9 µM | 86.5 µM | – | – | 13.7 µM | 55.9 µM | 3.5 µM | 10.8 µM | 27.2 µM | > 100 µM | 3.02 µM | 9.94 µM | 21.5 µM | 49.4 µM | 8.39 µM | > 100 µM | 5.5 µM | 25.8 µM | 3.96 µM | 18.2 µM
CN1CCc2c1nc(-c1ccccc1)c1c2N(C)CC1 | – | > 100 µM | – | > 100 µM | – | > 100 µM | – | > 100 µM | – | > 100 µM | – | – | – | > 100 µM | – | > 100 µM | – | > 100 µM | – | > 100 µM
CC(=O)OC1c2ccccc2CC2(OC(C)=O)c3ccccc3C12 (centres undefined) | – | > 100 µM | – | > 100 µM | – | > 100 µM | – | > 100 µM | – | > 100 µM | – | – | – | > 100 µM | – | > 100 µM | – | > 100 µM | – | > 100 µM
O=C(CCn1[nH]c(=O)c(Cl)c(Cl)c1=O)NOCCCc1ccccc1 | – | > 100 µM | – | > 100 µM | – | > 100 µM | – | > 100 µM | – | > 100 µM | – | – | – | > 100 µM | – | > 100 µM | – | > 100 µM | – | > 100 µM
c1ccc2nc(Cn3c[n+](Cc4ccc5ccccc5n4)c4ccccc43)ccc2c1 | 11.6 µM | 25.9 µM | 1.47 µM | 10.3 µM | 1.48 µM | 9.87 µM | – | – | 1.49 µM | 11.6 µM | 1.56 µM | 9.72 µM | 2.24 µM | 10.2 µM | 3.37 µM | 13 µM | 4.2 µM | 16.4 µM | 1.6 µM | 4.99 µM
CN(C)CCNC(=O)c1cccn2c(=O)c3cc4ccccc4cc3nc12 | – | – | 0.165 µM | 1.01 µM | 0.0691 µM | – | 0.0711 µM | 0.593 µM | 0.323 µM | 7.67 µM | 0.182 µM | 0.856 µM | 0.122 µM | 0.667 µM | 0.0571 µM | 8.23 µM | 0.11 µM | 14.1 µM | 0.16 µM | 0.573 µM
CCN=C1C=CC(=C(c2ccc(N(C)C)cc2)c2ccc(N(C)C)cc2)c2ccccc21 | 0.0312 µM | 0.176 µM | 0.03 µM | 0.211 µM | 0.0326 µM | 0.207 µM | 0.2 µM | 0.52 µM | 0.114 µM | 1.6 µM | – | – | 0.16 µM | 0.453 µM | 0.202 µM | 2.54 µM | 0.0866 µM | 0.37 µM | 0.0301 µM | 0.121 µM
Cc1cc(N2CCCCC2)nc(N(CCNc2ccnc3cc(Cl)ccc23)Cc2ccco2)n1 | 2.69 µM | 7.74 µM | 1.91 µM | 4.97 µM | 1.05 µM | 2.84 µM | – | – | 1.8 µM | 4.42 µM | 1.61 µM | 3.52 µM | 1.92 µM | 5.09 µM | 2.29 µM | 5.31 µM | 1.66 µM | 3.07 µM | 1.74 µM | 3.14 µM
CC1(Sc2ccccc2)CN(Cc2ccccc2)C1=O (centres undefined) | – | > 100 µM | – | > 100 µM | – | > 100 µM | – | – | – | > 100 µM | – | > 100 µM | – | > 100 µM | – | > 100 µM | – | > 100 µM | – | > 100 µM
CS(=O)(=O)CC1=Nc2nnc(CCCCCCCc3nnc4n3C(=O)C(CS(C)(=O)=O)=N4)n2C1=O | – | > 100 µM | – | > 100 µM | – | > 100 µM | – | > 100 µM | – | – | – | > 100 µM | – | > 100 µM | – | > 100 µM | – | > 100 µM | – | > 100 µM
COc1ccc(Cn2nc(-c3cc(OC)c(OC)c(OC)c3)c3c2CCc2cnoc2-3)cc1OC | 6.27 µM | > 100 µM | 3.43 µM | 64 µM | 3.8 µM | > 100 µM | – | – | 4.96 µM | 83.9 µM | 3.17 µM | > 100 µM | 2 µM | 9.8 µM | 3.76 µM | > 100 µM | 6.34 µM | > 100 µM | 3.29 µM | 9.61 µM
COc1cc(Cn2cc3c(c2)-c2oncc2CC3)cc(OC)c1OC | 0.0509 µM | > 100 µM | 0.048 µM | > 69.7 µM | 0.0339 µM | > 100 µM | 0.0337 µM | > 42.1 µM | 0.152 µM | > 100 µM | 0.0398 µM | 1.29 µM | 0.0196 µM | 1.04 µM | 0.0338 µM | 13.1 µM | 0.109 µM | > 64.6 µM | – | –
O=C(O)[C@@H]1C2CC([C@@H]1C(=O)O)[C@H](N1C(=O)CCC1=O)[C@@H]2Br (some centres undefined) | – | > 100 µM | – | > 100 µM | – | > 100 µM | – | – | – | > 100 µM | – | > 100 µM | – | > 100 µM | – | > 100 µM | – | > 100 µM | – | > 100 µM
CC(C)(C(=O)NN)c1ccccc1 | – | > 100 µM | – | > 100 µM | – | > 100 µM | – | > 100 µM | – | – | – | > 100 µM | – | > 100 µM | – | > 100 µM | – | > 100 µM | – | > 100 µM
CCOC(=O)c1c2c(n(CC(C)C)c1C)-c1nc[nH]c1C(=O)C2=O | 14.9 µM | 28.1 µM | – | – | 20.4 µM | 46.5 µM | 17.7 µM | 57.8 µM | 12.7 µM | 25.3 µM | 15.7 µM | 29.4 µM | 15.6 µM | 29 µM | 2.57 µM | 9.45 µM | 19.2 µM | 33.3 µM | 13 µM | 26.3 µM
